According to patent publication US20140357487A1, “PLANTS HAVING INCREASED TOLERANCE TO HERBICIDES” (BASF SE, priority 2011, published 2014):

Legend:
[1] = tested on: transgenic corn plants, Arabidopsis Q293S, event SDM-71864; experiment: Greenhouse testing of transgenic corn plants, Arabidopsis Q293S; type: in vivo, Zea mays; conditions: corn SDM-71864, 5 days after herbicide treatment, average of 8 T1
Excerpt: (§1) Various methods for the production of stably transformed plants are well known in the art. Coumarone-derivative herbicide tolerant soybean (Glycine max) or corn (Zea mays) plants can be produced by a method described by Olhoft et al. (US patent 2009/0049567). Briefly, HPPD or HST encoding polynucleotides are cloned into a binary vector using standard cloning techniques as described by Sambrook et al. (Molecular cloning (2001) Cold Spring Harbor Laboratory Press). The final vector construct contains an HPPD or HST encoding sequence flanked by a promoter sequence (e.g. the ubiquitin promoter (PcUbi) sequence) and a terminator sequence (e.g. the nopaline synthase terminator (NOS) sequence) and a resistance marker gene cassette (e.g. AHAS) (FIG. 2). Optionally, the HPPD or HST gene can provide the means of selection. Agrobacterium-mediated transformation is used to introduce the DNA into soybean's axillary meristem cells at the primary node of seedling explants. After inoculation and co-cultivation with Agrobacteria, the explants are transferred to shoot induction medium without selection for one week. The explants are subsequently transferred to shoot induction medium with 1-3 μM imazapyr (Arsenal) for 3 weeks to select for transformed cells. Explants with healthy callus/shoot pads at the primary node are then transferred to shoot elongation medium containing 1-3 μM imazapyr until a shoot elongates or the explant dies. After regeneration, transformants are transplanted to soil in small pots, placed in growth chambers (16 hr day/8 hr night; 25° C. day/23° C. night; 65% relative humidity; 130-150 mE m−2 s−1) and subsequently tested for the presence of the T-DNA via Taqman analysis. After a few weeks, healthy, transgenic positive, single copy events are transplanted to larger pots and allowed to grow in the growth chamber. Transformation of corn plants is done by a method described by McElver and Singh (WO 2008/124495). Plant transformation vector constructs containing HPPD or HST sequences are introduced into maize immature embryos via Agrobacterium-mediated transformation. Transformed cells are selected in selection media supplemented with 0.5-1.5 μM imazethapyr for 3-4 weeks. Transgenic plantlets are regenerated on plant regeneration media and rooted afterwards. Transgenic plantlets are subjected to TaqMan analysis for the presence of the transgene before being transplanted to potting mixture and grown to maturity in greenhouse. Arabidopsis thaliana is transformed with HPPD or HST sequences by floral dip method as described by McElver and Singh (WO 2008/124495). Transgenic Arabidopsis plants are subjected to Tag Man analysis for analysis of the number of integration loci. Transformation of Oryza sativa (rice) are done by protoplast transformation as described by Peng et al. (U.S. Pat. No. 6,653,529)
(§2) Transgenic plants expressing heterologous HPPD or HST enzymes are tested for tolerance against coumarone-derivative herbicides in greenhouse experiments.
(§3) For post emergence treatment, the test plants are first grown to a height of 3 to 15 cm, depending on the plant habit, and only then treated with the herbicides. For this purpose, the test plants are either sown directly and grown in the same containers, or they are first grown separately and transplanted into the test containers a few days prior to treatment.
Depending on the species, the plants are kept at 10-25° C. or 20-35° C. […] During this time, the plants are tended and their response to the individual treatments is evaluated. […] Tolerance to coumarone-derivative herbicides can also be assessed in Arabidopsis. In this case transgenic Arabidopsis thaliana plants are assayed for improved tolerance to coumarone-derivative herbicides in 48-well plates. Seeds are surface sterilized by stirring for 5 min in ethanol+water (70+30 by volume), rinsing one time with ethanol+water (70+30 by volume) and two times with a sterile, deionized water. […]

[2] = tested on: transgenic soybean plants, Arabidopsis I393L L385V, event SDS-9908; experiment: Greenhouse testing of transgenic soybean plants, Arabidopsis I393L L385V; type: in vivo, Glycine max; conditions: soybean SDS-9908, 5 days after herbicide treatment, average of 8 T1
Excerpt: as §1, §2, §3
(§4) Depending on the species, the plants are kept at 10-25° C. or 20-35° C. The test period extends over 3 weeks. During this time, the plants are tended and their response to the individual treatments is evaluated. […] Tolerance to coumarone-derivative herbicides can also be assessed in Arabidopsis. In this case transgenic Arabidopsis thaliana plants are assayed for improved tolerance to coumarone-derivative herbicides in 48-well plates. Seeds are surface sterilized by stirring for 5 min in ethanol+water (70+30 by volume), rinsing one time with ethanol+water (70+30 by volume) and two times with a sterile, deionized water. […]

[3] = tested on: soybean plants, wild type (transgene none); experiment: Greenhouse testing of soybean plants, wild type; type: in vivo, Glycine max; conditions: 5 days after herbicide treatment
Excerpt: as §1, §2, §3, §4

SMILES | Injury evaluation, scale of 1-100, bleaching phenotype ([1]; 6.25 g/ha) | Injury evaluation, scale of 1-100, bleaching phenotype ([1]; 25 g/ha) | Injury evaluation, scale of 1-100, bleaching phenotype ([1]; 100 g/ha) | Injury evaluation, scale of 1-100, bleaching phenotype ([2]; 6.25 g/ha) | Injury evaluation, scale of 1-100, bleaching phenotype ([2]; 25 g/ha) | Injury evaluation, scale of 1-100, bleaching phenotype ([2]; 100 g/ha) | Injury evaluation, scale of 1-100, bleaching phenotype ([3]; 6.25 g/ha) | Injury evaluation, scale of 1-100, bleaching phenotype ([3]; 25 g/ha) | Injury evaluation, scale of 1-100, bleaching phenotype ([3]; 100 g/ha) | Injury evaluation, scale of 1-100, bleaching phenotype ([1]; 2.5 g/ha) | Injury evaluation, scale of 1-100, bleaching phenotype ([1]; 10 g/ha) | Injury evaluation, scale of 1-100, bleaching phenotype ([1]; 40 g/ha) | Injury evaluation, scale of 1-100, bleaching phenotype ([2]; 2.5 g/ha) | Injury evaluation, scale of 1-100, bleaching phenotype ([2]; 10 g/ha) | Injury evaluation, scale of 1-100, bleaching phenotype ([2]; 40 g/ha) | Injury evaluation, scale of 1-100, bleaching phenotype ([3]; 2.5 g/ha) | Injury evaluation, scale of 1-100, bleaching phenotype ([3]; 10 g/ha) | Injury evaluation, scale of 1-100, bleaching phenotype ([3]; 40 g/ha)
Cc1c(C(=O)c2cnn(C)c2O)ccc(S(C)(=O)=O)c1C1=NOCC1 [Topramezone, reference compound] | 1 | 4 | 6 | 2 | 7 | 14 | 21 | 22 | 25 |  |  |  |  |  |  |  |  | 
CC1(C)c2cccnc2C(O)=C(c2ccc(Cl)nc2Cl)S1(=O)=O [Inhibitor 2, 7-(2,6-dichloro-3-pyridyl)-5,5-dimethyl-6,6-dioxo-thiopyrano[4,3-b]pyridin-8-ol] |  |  |  |  |  |  |  |  |  | 4 | 17 | 15 | 3 | 3 | 5 | 11 | 17 | 23
